Test results reported in patent publication US11001581B2, “Compounds which inhibit RNA polymerase, compositions including such compounds, and their use” (THE JOHNS HOPKINS UNIVERSITY, priority 2014, dated 2021).

How the values were obtained:
[1] = tested on: tumor burden; details: earlier studies of the inventors; cited from earlier work
[2] = tested on: NCI60 cancer cell lines; details: earlier studies of the inventors; cited from earlier work
[3] = tested on: NCL; test: Determination of NCL IC50 (loss of NCL nucleolar intensity, immunofluorescence image analysis); format: cell-based; details: U2OS cells, 3 h treatment, 0.1-10 μM, fold change to control, three-parameter fit
From the text: (§1) Immunofluorescence, Epifluorescence Microscopy and Image Analysis. […] Cells were stained for RPA194 (C-1, Santa Cruz Biotechnology) and NCL (4E2, Abeam). […] DNA was counterstained with DAPI (Invitrogen). Images were captured using Axioplan2 fluorescence microscope (Zeiss) equipped with AxioCam HRc CCD-camera and AxioVision 4.5 software using EC Plan-Neofluar 20×/0.75 objective (Zeiss). […] Hue saturation and brightness range were defined individually for RPA194 and NCL. All values were normalized to the DNA content. Two-four fields of each treatment were recorded and quantification was based on an average of 200 cells.
Determination of RPA194 and NCL IC50. […] All compounds, except when indicated, were tested in duplicate independent biological experiments Immunostaining for NCL and RPA194 was conducted separately, and cells were counterstained for DNA. Two-four fields of each treatment were captured using epifluorescence microscopy as above, and contained on average of 200 cells/analysis. […] Hue saturation and brightness range were defined individually for RPA194 and NCL, and all values were normalized to the DNA content.

[4] = tested on: RPA194; test: Determination of RPA194 IC50 (immunofluorescence image analysis of RPA194 degradation); format: cell-based; details: U2OS cells, 3 h treatment, 0.1-10 μM, fold change to control, three-parameter fit
From the text: as §1
Determination of RPA194 and NCL IC50. U2OS cells grown on coverslips were treated the compounds at 0.1, 0.5, 1, 5 and 10 μM, or vehicle (DMSO)-treated for 3 h and fixed and stained as above. All compounds, except when indicated, were tested in duplicate independent biological experiments Immunostaining for NCL and RPA194 was conducted separately, and cells were counterstained for DNA. Two-four fields of each treatment were captured using epifluorescence microscopy as above, and contained on average of 200 cells/analysis. […] Hue saturation and brightness range were defined individually for RPA194 and NCL, and all values were normalized to the DNA content.

Row | Compound | tumor burden in mouse xenograft assays [1] | anticancer activity in NCI60 cancer cell lines [2] | IC50 [3] [µM] | IC50 [4] [µM]
1 | CN(C)CCNC(=O)c1cccn2c(=O)c3cc4ccccc4cc3nc12 [BMH-21, 12H-Benzo[g]pyrido[2,1-b]quinazoline-4-carboxamide, N-[2(dimethylamino)ethyl]-12-oxo] | reduced tumor burden | broad and potent anticancer activity | – | –
2 | CCN(CC)C1CCN(C(=O)c2cccn3c(=O)c4cc5ccccc5cc4nc23)C1 (stereo not drawn) [Compound 19, 4-[3-(diethylamino)pyrrolidine-1-carbonyl]-12H-benzo[g]pyrido[2,1-b]quinazoline-12-one] | – | – | 11 | 32
3 | CN1CC(NC(=O)c2cccn3c(=O)c4cc5ccccc5cc4nc23)C1 [Compound 29, N-(1-methylazetidin-3-yl)-12-oxo-12H-benzo[g]pyrido[2,1-b]quinazoline-4-carboxamide] | – | – | 0.47 | 0.9
4 | CC(C)(N)CNC(=O)c1cccn2c(=O)c3cc4ccccc4cc3nc12 [Compound 30, N-(2-amino-2-methyl-propyl)-12-oxo-12H-benzo[g]pyrido[2,1-b]quinazoline-4-carboxamide] | – | – | 0.2 | 0.27
5 | CN(C)C(C)(C)CNC(=O)c1cccn2c(=O)c3cc4ccccc4cc3nc12 [Compound 31, N-[2-(dimethylamino)-2-methyl-propyl]-12-oxo-12H-benzo[g]pyrido[2,1-b]quinazoline-4-carboxamide] | – | – | 0.14 | 0.16
6 | CC(N)CNC(=O)c1cccn2c(=O)c3cc4ccccc4cc3nc12 (stereo not drawn) [Compound 32, N-(2-aminopropyl)-12-oxo-12H-benzo[g]pyrido[2,1-b]quinazoline-4-carboxamide] | – | – | 0.1 | 0.1
7 | C[C@@H](N)CNC(=O)c1cccn2c(=O)c3cc4ccccc4cc3nc12 [Compound 33, N-[(2R)-2-aminopropyl]-12-oxo-12H-benzo[g]pyrido[2,1-b]quinazoline-4-carboxamide] | – | – | 0.81 | 0.11
8 | C[C@H](N)CNC(=O)c1cccn2c(=O)c3cc4ccccc4cc3nc12 [Compound 35, N-[(2S)-2-aminopropyl]-12-oxo-12H-benzo[g]pyrido[2,1-b]quinazoline-4-carboxamide] | – | – | 0.17 | 0.12
9 | O=C(NCCc1ccncc1)c1cccn2c(=O)c3cc4ccccc4cc3nc12 [Compound 37, 12-oxo-N-[2-(4-pyridyl)ethyl]-12H-benzo[g]pyrido[2,1-b]quinazoline-4-carboxamide] | – | – | > 100 | 3.5
